{"source": "patent US20010023259A1", "about": "“Conjugated fatty acids and related compounds” (Natural ASA, priority 1999, published 2001)", "system": "Spirulina platensis (Arthrospira sp.) PCC8005", "assay": "Incubation of fatty acid substrates with S. platensis; fatty acid composition of extracted lipids by GC", "format": "cell-based", "conditions": "for 6,9,11 - 18:3 (desaturated metabolite), fatty acid composition of lipids extracted from S. platensis / 9,11 - 18:2 (substrate taken up), fatty acid composition of lipids extracted from S. platensis / Amount, total weight of lipid in extract / linoleic acid 18:2, fatty acid composition of lipids extracted from S. platensis / linolenic acid 18:3 (n-6), fatty acid composition of lipids extracted from S. platensis / oleic acid 18:1, fatty acid composition of lipids extracted from S. platensis / palmitic acid 16:0, fatty acid composition of lipids extracted from S. platensis / palmitoleic acid 16:1, fatty acid composition of lipids extracted from S. platensis / stearic acid 18:0, fatty acid composition of lipids extracted from S. platensis: incubation with added 9-cis,11-trans-octadecadienoic acid", "procedure": "Spirulina platensis (Arthrospira sp.) PCC8005 was grown in Zabrouk's medium in 50 ml batch culture in 100 ml erlenmeyer flasks at 30° C. with illumination of 50 μmol photons m^-2 […]. Cultures were harvested following 5 days growth by centrifugation at 40,000 g in a […] rotor in a Beckman Avanti centrifuge 20 minutes, cooled rotor @4° C. The algal pellet was carefully resuspended in fresh Zabrouk's medium under aseptic conditions. Initial time-course experiments were carried out by resuspending the algal pellet in 50 ml fresh medium, which was then divided into 10 ml aliquots, each containing 0.5 ml of 1.8mM ammonium fatty acid substrate and incubating under the above conditions. Control cultures incubated without linoleate were also set up. […] The algal pellet was washed four times in 50 ml freshly drawn MilliQ water and then freeze dried prior to analyses. In later experiments where bulk material was required for a more detailed analysis of the metabolite produced, 4×50 ml cultures were grown and harvested as above. […] Following this incubation the algal material was pelleted, washed and freeze dried as described above. […] The latter were converted to the picolinyl ester derivatives by the procedure of Balazy and Nies, Biomed. Environ. […] The temperature of both the injector and detector was 250° C. Hydrogen was the carrier gas. The analyses were performed with a column (fused silica capillary) coated with carbowax (Chrompack UK Ltd, London, 30 m×[…] i.d.). The oven temperature was programmed from 170 to 220° C. at 4° C./min."}
{"smiles": "CCCCC/C=C\\C=C\\CCCCCCCCC(=O)O", "note": "[10-t,12-c-octadecadienoic acid]", "values": [{"measurement": "metabolite formed, share of the conjugated acids", "setting": "96 hours incubation", "value": "18 % of the conjugated acids"}, {"measurement": "metabolite formed, share of the total fatty acids", "setting": "96 hours incubation, GC retention time expected for 6-c,10-t,12-c-octadecatrienoic acid", "value": "6.4 % of the total fatty acids"}, {"measurement": "incorporation into the lipids of S. platensis", "setting": "substrate added exogenously", "value": "rapidly incorporated"}]}
{"smiles": "CCCCCC/C=C/C=C\\CCCCCCCC(=O)O", "note": "[CLA, 9-cis,11-trans-octadecadienoic acid]", "values": [{"measurement": "recovered CLA isomer converted to the desaturated metabolite", "setting": "after 24 hours", "value": 13, "unit": "%"}, {"measurement": "compound taken up from the surrounding medium, share of lipid", "setting": "at 24 hrs", "value": "27.8 % of lipid"}, {"measurement": "time at which plateau level of the 6,9,11 tri-unsaturated fatty acid is attained", "setting": "conversion of the di-unsaturated compound", "value": "about 72 hours"}, {"measurement": "change of relative proportion of oleate with time", "setting": "extracts incubated with the CLA isomer, 0-96 h", "value": "increased four fold"}, {"measurement": "6,9,11 - 18:3 (desaturated metabolite), fatty acid composition of lipids extracted from S. platensis", "setting": "0h", "value": 0.0, "unit": "wt %"}, {"measurement": "9,11 - 18:2 (substrate taken up), fatty acid composition of lipids extracted from S. platensis", "setting": "0h", "value": 0.0, "unit": "wt %"}, {"measurement": "Amount, total weight of lipid in extract", "setting": "0h", "value": 85.3, "unit": "µg"}, {"measurement": "linoleic acid 18:2, fatty acid composition of lipids extracted from S. platensis", "setting": "0h", "value": 11.7, "unit": "wt %"}, {"measurement": "linolenic acid 18:3 (n-6), fatty acid composition of lipids extracted from S. platensis", "setting": "0h", "value": 32.2, "unit": "wt %"}, {"measurement": "oleic acid 18:1, fatty acid composition of lipids extracted from S. platensis", "setting": "0h", "value": 4.9, "unit": "wt %"}, {"measurement": "palmitic acid 16:0, fatty acid composition of lipids extracted from S. platensis", "setting": "0h", "value": 42.0, "unit": "wt %"}, {"measurement": "palmitoleic acid 16:1, fatty acid composition of lipids extracted from S. platensis", "setting": "0h", "value": 6.5, "unit": "wt %"}, {"measurement": "stearic acid 18:0, fatty acid composition of lipids extracted from S. platensis", "setting": "0h", "value": 2.6, "unit": "wt %"}, {"measurement": "6,9,11 - 18:3 (desaturated metabolite), fatty acid composition of lipids extracted from S. platensis", "setting": "24h", "value": 4.1, "unit": "wt %"}, {"measurement": "9,11 - 18:2 (substrate taken up), fatty acid composition of lipids extracted from S. platensis", "setting": "24h", "value": 27.8, "unit": "wt %"}, {"measurement": "Amount, total weight of lipid in extract", "setting": "24h", "value": 170.3, "unit": "µg"}, {"measurement": "linoleic acid 18:2, fatty acid composition of lipids extracted from S. platensis", "setting": "24h", "value": 8.2, "unit": "wt %"}, {"measurement": "linolenic acid 18:3 (n-6), fatty acid composition of lipids extracted from S. platensis", "setting": "24h", "value": 19.5, "unit": "wt %"}, {"measurement": "oleic acid 18:1, fatty acid composition of lipids extracted from S. platensis", "setting": "24h", "value": 4.0, "unit": "wt %"}, {"measurement": "palmitic acid 16:0, fatty acid composition of lipids extracted from S. platensis", "setting": "24h", "value": 30.7, "unit": "wt %"}, {"measurement": "palmitoleic acid 16:1, fatty acid composition of lipids extracted from S. platensis", "setting": "24h", "value": 4.7, "unit": "wt %"}, {"measurement": "stearic acid 18:0, fatty acid composition of lipids extracted from S. platensis", "setting": "24h", "value": 0.9, "unit": "wt %"}, {"measurement": "6,9,11 - 18:3 (desaturated metabolite), fatty acid composition of lipids extracted from S. platensis", "setting": "48h", "value": 5.1, "unit": "wt %"}, {"measurement": "9,11 - 18:2 (substrate taken up), fatty acid composition of lipids extracted from S. platensis", "setting": "48h", "value": 21.2, "unit": "wt %"}, {"measurement": "Amount, total weight of lipid in extract", "setting": "48h", "value": 188.3, "unit": "µg"}, {"measurement": "linoleic acid 18:2, fatty acid composition of lipids extracted from S. platensis", "setting": "48h", "value": 6.9, "unit": "wt %"}, {"measurement": "linolenic acid 18:3 (n-6), fatty acid composition of lipids extracted from S. platensis", "setting": "48h", "value": 19.0, "unit": "wt %"}, {"measurement": "oleic acid 18:1, fatty acid composition of lipids extracted from S. platensis", "setting": "48h", "value": 8.6, "unit": "wt %"}, {"measurement": "palmitic acid 16:0, fatty acid composition of lipids extracted from S. platensis", "setting": "48h", "value": 32.7, "unit": "wt %"}, {"measurement": "palmitoleic acid 16:1, fatty acid composition of lipids extracted from S. platensis", "setting": "48h", "value": 5.3, "unit": "wt %"}, {"measurement": "stearic acid 18:0, fatty acid composition of lipids extracted from S. platensis", "setting": "48h", "value": 1.2, "unit": "wt %"}, {"measurement": "6,9,11 - 18:3 (desaturated metabolite), fatty acid composition of lipids extracted from S. platensis", "setting": "72h", "value": 5.7, "unit": "wt %"}, {"measurement": "9,11 - 18:2 (substrate taken up), fatty acid composition of lipids extracted from S. platensis", "setting": "72h", "value": 16.2, "unit": "wt %"}, {"measurement": "Amount, total weight of lipid in extract", "setting": "72h", "value": 211.8, "unit": "µg"}, {"measurement": "linoleic acid 18:2, fatty acid composition of lipids extracted from S. platensis", "setting": "72h", "value": 4.9, "unit": "wt %"}, {"measurement": "linolenic acid 18:3 (n-6), fatty acid composition of lipids extracted from S. platensis", "setting": "72h", "value": 16.5, "unit": "wt %"}, {"measurement": "oleic acid 18:1, fatty acid composition of lipids extracted from S. platensis", "setting": "72h", "value": 15.4, "unit": "wt %"}, {"measurement": "palmitic acid 16:0, fatty acid composition of lipids extracted from S. platensis", "setting": "72h", "value": 34.3, "unit": "wt %"}, {"measurement": "palmitoleic acid 16:1, fatty acid composition of lipids extracted from S. platensis", "setting": "72h", "value": 5.4, "unit": "wt %"}, {"measurement": "stearic acid 18:0, fatty acid composition of lipids extracted from S. platensis", "setting": "72h", "value": 1.7, "unit": "wt %"}, {"measurement": "6,9,11 - 18:3 (desaturated metabolite), fatty acid composition of lipids extracted from S. platensis", "setting": "96h", "value": 5.8, "unit": "wt %"}, {"measurement": "9,11 - 18:2 (substrate taken up), fatty acid composition of lipids extracted from S. platensis", "setting": "96h", "value": 10.5, "unit": "wt %"}, {"measurement": "Amount, total weight of lipid in extract", "setting": "96h", "value": 166.2, "unit": "µg"}, {"measurement": "linoleic acid 18:2, fatty acid composition of lipids extracted from S. platensis", "setting": "96h", "value": 3.9, "unit": "wt %"}, {"measurement": "linolenic acid 18:3 (n-6), fatty acid composition of lipids extracted from S. platensis", "setting": "96h", "value": 15.1, "unit": "wt %"}, {"measurement": "oleic acid 18:1, fatty acid composition of lipids extracted from S. platensis", "setting": "96h", "value": 21.6, "unit": "wt %"}, {"measurement": "palmitic acid 16:0, fatty acid composition of lipids extracted from S. platensis", "setting": "96h", "value": 35.4, "unit": "wt %"}, {"measurement": "palmitoleic acid 16:1, fatty acid composition of lipids extracted from S. platensis", "setting": "96h", "value": 5.7, "unit": "wt %"}, {"measurement": "stearic acid 18:0, fatty acid composition of lipids extracted from S. platensis", "setting": "96h", "value": 1.9, "unit": "wt %"}, {"measurement": "incorporation into the lipids of S. platensis", "setting": "substrate added exogenously", "value": "rapidly take up the compound"}]}
{"smiles": "CCCCCC#CCC=CCCCCCCCC(=O)O", "note": "[Crepenynic acid, octadeca-9-en-12-ynoic acid]", "values": [{"measurement": "C20 homologue formed by chain elongation in the total fatty acids", "setting": "96 hours incubation", "value": "detected"}, {"measurement": "desaturation in position 6 by S. platensis", "setting": "substrate added exogenously", "value": "converted to a dehydro-metabolite"}, {"measurement": "incorporation into the lipids of S. platensis", "setting": "substrate added exogenously", "value": "taken up"}]}
